Laboratory results published in PMC7403315, “Cyclic peptide FXII inhibitor provides safe anticoagulation in a thrombosis model and in artificial lungs” (Nature Communications, 2020).
Like-named read-outs stand apart in the source and are kept apart here. Starred links: 1 amine or outer side, 2 acyl side, 3 side chain; linkers in the order of their positions; H or OH if unused. Positions of bridges follow the written chain, without caps; N, C: chain ends. Non-standard residues stand in square brackets, D forms with d. Residues, ends and D or L forms follow the SMILES beside them. TATA = O=C(CC[*:1])N1CN(C(=O)CC[*:2])CN(C(=O)CC[*:3])C1; Phe(4-F) = N[C@@H](Cc1ccc(F)cc1)C(=O)O; β3hR = N=C(N)NCCC[C@H](N)CC(=O)O

Target: T1, recombinant human FXIIa (Homo sapiens, UniProt P00748)
T1 construct: made in house; host or cells: CHO cells
T1 sequence (P00748 373-615 limits assumed): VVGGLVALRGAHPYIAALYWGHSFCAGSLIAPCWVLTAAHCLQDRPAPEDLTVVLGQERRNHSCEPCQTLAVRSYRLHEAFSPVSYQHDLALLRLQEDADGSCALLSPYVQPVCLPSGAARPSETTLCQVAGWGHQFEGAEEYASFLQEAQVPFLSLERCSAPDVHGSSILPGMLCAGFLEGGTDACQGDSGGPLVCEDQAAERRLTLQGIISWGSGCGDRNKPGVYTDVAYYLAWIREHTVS
T1 sequence (P00748 20-372 limits assumed): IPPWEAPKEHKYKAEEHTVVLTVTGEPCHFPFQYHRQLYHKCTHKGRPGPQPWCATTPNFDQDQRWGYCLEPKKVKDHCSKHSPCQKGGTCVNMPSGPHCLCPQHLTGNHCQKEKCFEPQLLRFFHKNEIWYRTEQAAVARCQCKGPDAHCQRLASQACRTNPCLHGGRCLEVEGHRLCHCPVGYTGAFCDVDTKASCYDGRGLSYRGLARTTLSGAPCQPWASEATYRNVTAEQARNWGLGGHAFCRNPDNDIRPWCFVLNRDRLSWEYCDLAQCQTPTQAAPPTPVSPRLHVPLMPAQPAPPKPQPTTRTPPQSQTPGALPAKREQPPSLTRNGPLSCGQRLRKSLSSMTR
Experiment: Inhibition of recombinant FXIIa (rFXIIa)
Assay type: biochemical
Settings: for remaining activity at 0.001 µM: peptide 1 nM; for remaining activity at 0.002 µM: peptide 2 nM
Source text: The protein sequences for human, rabbit and pig factor XII were taken from the following database entries: human FXII: UniProtKB - P00748; rabbit FXII: NCBI RefSeq - XP_008253687.1; pig FXII: UniProtKB - O97507. The sequences are shown in the Supplementary Methods. DNA encoding the full-length proteins were ordered from Eurofins Genomics. The codons in these sequences were optimized for mammalian expression using the codon optimization tool from Integrated DNA Technologies (IDT). In addition to the FXII gene, the ordered DNA sequences encode a C-terminal GSGS-linker, a His6-tag and a stop codon, and they are flanked by NheI (GCTAGC) and a HindIII (AAGCTT) restriction sites. The entire DNA sequences are provided in the supporting materials. The DNA sequences were cloned into the pEXPR-IBA42 vector downstream of a BM40 signal sequence for secreted expression in mammalian cells. The ligated vector was transformed into DH5 alpha electrocompetent E. coli cells. Plasmid DNA from single clones was sequenced by Sanger sequencing.
1.5 mg plasmid DNA was transfected into 500 ml CHO cells (Thermo Fisher Scientific) in cell suspension culture using polyethylenimine (PEI). Cells were incubated for seven days at 37 °C, 5% CO2 under shaking conditions. The cells were removed by centrifugation and the secreted protein was purified from the supernatant using a nickel-charged immobilized metal affinity chromatography (IMAC) column (5 ml HisTrap FF Crude, GE Healthcare). The column was equilibrated with buffer containing 15 mM imidazole, 100 mM NaCl, 20 mM Tris-HCl, pH 7.4. The pH of the cell culture supernatant was adjusted to 8.0 using NaOH. The supernatant was run through the column at a flow of 5 ml per min. The column was washed with 20 column volumes of equilibration buffer at a flow of 5 ml per min. The protein was eluted with 500 mM imidazole, 100 mM NaCl, 20 mM Tris-HCl, pH 7.4 at a flow of 5 ml per min. The buffer was subsequently exchanged to 100 mM NaCl, 20 mM Tris-HCl, pH 7.4 by three iterative steps of 10-fold dilution and 10-fold concentration using a 10,000 MWCO centrifugal concentrator. The concentration was determined by measuring absorption at 280 nm (ε = 100,000). For the activation of recombinant FXII, 10 μg protein was diluted to a total volume of 10 μl 100 mM NaCl, 20 mM Tris-HCl, pH 7.4 and further diluted with 10 μl of 2-fold concentrated assay buffer (300 mM NaCl, 20 mM MgCl2, 2 mM CaCl2, 20 mM Tris-HCl, 0.02% (v/v) Triton-X100, pH 7.4). Dextran sulfate 500 kDa (DXS500) was added to a final concentration of 0.2 μg μl^−1 and incubated for 1 hour at 37 °C. 5 μg protein was analyzed by SDS-PAGE under reducing conditions.
Protease inhibition assays
The inhibitory activity of peptides was determined by measuring the residual protease activity with a fluorogenic substrate. The assay was performed in buffer containing 10 mM Tris-Cl, pH […]
1% (v/v) DMSO in a volume of 150 µl. FXIIa activity was measured with the fluorogenic substrate Boc-Gln-Gly-Arg-AMC (Bachem) at a final concentration of 50 µM. Mouse α-FXIIa (Molecular Innovations cat # MFXIIA) and human β-FXIIa (Molecular Innovations cat # HFXIIAB) were used at final concentrations of 0.4 nM. The reaction was pipetted as follows: 50 µl of bicyclic peptide in assay buffer were added to 50 µl of FXIIa in assay buffer and incubated for 10 minutes at 25°C before 50 µl of 150 µM fluorogenic substrate in assay buffer were added to measure the residual protease activity with an Infinite M200Pro fluorescence plate reader (excitation at 368 nm, emission at 467 nm; Tecan) for a period of 30 minutes with a read every minute at 25°C. The Tecan software i-control (version 1.1) was used for data analysis. Stock solutions of 1 mM bicyclic peptide were prepared by either dissolving the unpurified cyclization reaction with water or by dissolving purified and lyophilized peptide in water. The bicyclic peptides were serially diluted two-fold using assay buffer. Sigmoidal curves were fitted to the […]

[1] = Recombinant human FXII, individual plates, read-out: Residual activity (%)
[2] = read-out: Residual activity (%), Recombinant human FXII, individual plates

| remaining activity at 0.001 µM [1] [%] | remaining activity at 0.002 µM [1] [%] | remaining activity at 0.004 µM (Recombinant human FXII, peptide 4 nM, individual plates, read-out: Residual activity (%)) [%] | remaining activity at 0.008 µM (Recombinant human FXII, peptide 8 nM, individual plates, read-out: Residual activity (%)) [%] | remaining activity at […] (Recombinant human FXII, peptide 16 nM, individual plates, read-out: Residual activity (%)) [%] | remaining activity at […] (Recombinant human FXII, peptide 32 nM, individual plates, read-out: Residual activity (%)) [%] | remaining activity at 0.064 µM (Recombinant human FXII, peptide 64 nM, individual plates, read-out: Residual activity (%)) [%] | Structure (SMILES) | Ki [nM] | remaining activity at 62.5 pM (read-out: Residual activity (%), Recombinant human FXII, peptide 0.0625 nM, individual plates) [%] | remaining activity at 0.000125 µM (read-out: Residual activity (%), Recombinant human FXII, peptide 0.125 nM, individual plates) [%] | remaining activity at 0.0005 µM (read-out: Residual activity (%), Recombinant human FXII, peptide 0.5 nM, individual plates) [%] | remaining activity at 0.001 µM [2] [%] | remaining activity at 0.002 µM [2] [%] |
| --- | --- | --- | --- | --- | --- | --- | --- | --- | --- | --- | --- | --- | --- |
| 87.7 | 78.5 | 65.2 | 47.5 | 30 | 16.5 | 6.9 | CC(C)C[C@@H]1NC(=O)[C@H](CCC(N)=O)NC(=O)[C@H](CCCNC(=N)N)NC(=O)[C@@H]2CSCCC(=O)N3CN(CN(C3)C(=O)CCSC[C@H](NC(=O)[C@@H](N)CCCNC(=N)N)C(=O)N[C@@H](Cc3ccccc3)C(=O)N[C@@H](CCCNC(=N)N)C(=O)N[C@@H](CC(C)C)C(=O)N3CCC[C@H]3C(=O)N2)C(=O)CCSC[C@@H](C(=O)N[C@@H](CCCNC(=N)N)C(N)=O)NC(=O)[C@H](CCCNC(=N)N)NC1=O [FXII618] | – | – | – | – | – | – |
| – | – | – | – | – | – | – | CC(C)C[C@@H]1NC(=O)[C@H](CCC(N)=O)NC(=O)[C@H](Cc2c[nH]cn2)NC(=O)[C@@H]2CSCCC(=O)N3CN(CN(C3)C(=O)CCSC[C@H](NC(=O)[C@@H](CO)NC(=O)[C@H](N)CCCNC(=N)N)C(=O)N[C@@H](Cc3ccc(F)cc3)C(=O)N[C@@H](CCCNC(=N)N)C(=O)N[C@@H](CC(C)C)C(=O)N3CCC[C@H]3C(=O)N2)C(=O)CCSC[C@@H](C(N)=O)NC(=O)C[C@H](CCCNC(=N)N)NC1=O [FXII900] (H-[dR][dS]C[Phe(4-F)]RLPCHQL[β3hR]C-NH2; linker 3-8-13 via TATA) | 0.51 | 93.8 | 87.9 | 61.1 | 35.5 | 10.4 |
